From the C3SDB collision cross section collection

Assays:
[1] = [M+H]+; instrument: TW; calibrated with phosphatidylcholines (ESI+) and phosphatidylethanolamines (ESI-)
[2] = instrument: DT, stepped-field

Row | SMILES | collision cross section (N2) ([2]; [M+2Na-H]+) | collision cross section (N2) ([2]; [M+Na]+) | collision cross section (N2) ([2]; [M+H]+) | also measured
1 | CCCCCCCCCCCCCCCC(=O)N[C@@H](CO)[C@H](O)CCCCCCCCCCCCCCC [Cer(d18:0/16:0)] |  |  |  | collision cross section (N2) [1]: 255.1 Å²
2 | CCCCCCCCCCCCC=CC[C@@H](O)[C@H](CO)NC(=O)CCCCCCCCCCCCCCCCC [Cer(d18:0/18:1)] |  |  |  | collision cross section (N2) [1]: 261.3 Å²
3 | CCCCCCCCCCCCCCCCCCCCCC(=O)N[C@@H](CO)[C@H](O)CCCCCCCCCCCCCCC [Cer(d18:0/22:0)] |  |  |  | collision cross section (N2) [1]: 274.1 Å²
4 | CCCCC/C=C\CCCCCCCC(=O)OC[C@H](COP(=O)(O)OCCN)OC(=O)CCCCCCCCCCCCCCCCCCCCC [PE(37:01)] | 286.74 Å² | 284.35 Å² |  | 
5 | CCCCCCCC/C=C\CCCCCCCC(=O)OC[C@H](COP(=O)(O)OCCN)OC(=O)CCCCCCC/C=C\CCCCCCCCC [PE(37:02)] | 285.18 Å² | 282.21 Å² |  | 
6 | CCCCC/C=C\C/C=C\CCCCCCCCCCCC(=O)O[C@H](COC(=O)CCCCCCCCCCCCCCC)COP(=O)(O)OCCN [PE(38:02)] | 288.8 Å² |  |  | 
7 | CC/C=C\C/C=C\C/C=C\C/C=C\CCCCC(=O)O[C@H](COC(=O)CCCCCCCCCCCCCCCCCCC)COP(=O)(O)OCCN [PE(38:04)] | 284.96 Å² |  |  | collision cross section (N2) ([2]; [M+K]+): 284.45 Å²; collision cross section (N2) ([2]; [M-H]-): 276.04 Å²
8 | CCCCC/C=C\C/C=C\C/C=C\CCCCC(=O)OC[C@H](COP(=O)(O)OCCN)OC(=O)CCCCCCCCCCC/C=C\C/C=C\CCCCC [PE(40:05)] | 289.53 Å² | 289.38 Å² |  | collision cross section (N2) ([2]; [M-H]-): 280.89 Å²
9 | CCCCCC/C=C\CCCCCCCC(=O)O[C@H](COCCCCCCCCCCCCCCCCCC)COP(=O)(O)OCCN [PE(o34:01)] | 276.22 Å² | 275.79 Å² |  | 
10 | CCCCCCCC/C=C\CCCCCCCCCC(=O)O[C@H](COCCCCCCCCCCCCCCCC)COP(=O)(O)OCCN [PE(o36:01)] | 283.23 Å² | 281.66 Å² | 277.08 Å² | 
11 | CCCCC/C=C\C/C=C\CCCCCCCC(=O)O[C@H](COCCCCCCCCCCCCCCCCCC)COP(=O)(O)OCCN [PE(o36:02)] | 280.9 Å² | 280.37 Å² | 274.98 Å² | 
12 | CC/C=C\C/C=C\C/C=C\C/C=C\C/C=C\C/C=C\CCC(=O)O[C@H](COCCCCCCCCCCCCCCCC)COP(=O)(O)OCCN [PE(o38:06)] | 280.85 Å² |  |  | 
13 | CC/C=C\C/C=C\C/C=C\C/C=C\C/C=C\C/C=C\CCC(=O)O[C@H](COCCCCCCCCCCCCCCCCCC)COP(=O)(O)OCCN [PE(o40:06)] | 288.19 Å² |  |  | 
14 | CCCCCCCC/C=C\CCCCCCCC(=O)OC[C@H](COP(=O)(O)OC[C@H](N)C(=O)O)OC(=O)CCCCCCC/C=C\CCCCCCCC [PS(36:02)] | 285.97 Å² |  | 280.92 Å² | collision cross section (N2) ([2]; [M+K]+): 285.23 Å²; collision cross section (N2) ([2]; [M-H]-): 281.82 Å²
15 | CCCCCCCCCC/C=C\CCCCCCCCCC(=O)O[C@H](COC(=O)CCCCCCCCCCCCCCC)COP(=O)(O)OC[C@H](N)C(=O)O [PS(38:01)] | 295.38 Å² |  | 289.63 Å² | 
16 | CCCCC/C=C\C/C=C\CCCCCCCCCCCC(=O)O[C@H](COC(=O)CCCCCCC/C=C\CCCCCC)COP(=O)(O)OC[C@H](N)C(=O)O [PS(38:03)] |  |  |  | collision cross section (N2) ([2]; [M-H]-): 286.53 Å²
17 | CCCCC/C=C\C/C=C\C/C=C\C/C=C\CCCCCC(=O)O[C@H](COC(=O)CCCCCCCCCCCCCCCC)COP(=O)(O)OC[C@H](N)C(=O)O [PS(39:04)] | 291.95 Å² |  |  | 
18 | CCCCCCCC/C=C\CCCCCCCCCC(=O)OC[C@H](COP(=O)(O)OC[C@H](N)C(=O)O)OC(=O)CCCCCCCCCCCCCCCCCCC [PS(40:01)] | 301.13 Å² |  | 295.93 Å² | 

Row | SMILES | collision cross section (N2) ([2]; [M+2Na-H]+) | collision cross section (N2) ([2]; [M+Na]+) | collision cross section (N2) ([2]; [M+H]+) | also measured
19 | CCCCC/C=C\C/C=C\C/C=C\CCCCC(=O)OC[C@H](COP(=O)(O)OC[C@H](N)C(=O)O)OC(=O)CCCCCCCCC/C=C\CCCCCCCCCC [PS(40:04)] | 298.27 Å² | 295.22 Å² | 291.15 Å² | collision cross section (N2) ([2]; [M+K]+): 295.44 Å²; collision cross section (N2) ([2]; [M-H]-): 291.3 Å²
20 | CCCCC/C=C\C/C=C\C/C=C\C/C=C\CCCC(=O)O[C@H](COC(=O)CCCCCCCCC/C=C\CCCCCCCC)COP(=O)(O)OC[C@H](N)C(=O)O [PS(40:05)] | 297.17 Å² | 293.82 Å² | 289.6 Å² | collision cross section (N2) ([2]; [M+K]+): 294.22 Å²; collision cross section (N2) ([2]; [M-H]-): 290.27 Å²
21 | CC/C=C\C/C=C\C/C=C\C/C=C\C/C=C\C/C=C\CCC(=O)O[C@H](COC(=O)CCCCCCC/C=C\C/C=C\C/C=C\CC)COP(=O)(O)OC[C@H](N)C(=O)O [PS(40:09)] | 284.82 Å² |  |  | 
22 | CCCCC/C=C\C/C=C\CCCCCCCCCCCC(=O)O[C@H](COC(=O)CCCCCCCCCCCCCCCCCCC)COP(=O)(O)OC[C@H](N)C(=O)O [PS(42:02)] | 306.07 Å² | 302 Å² | 299.5 Å² | 
23 | CCCCC/C=C\C/C=C\CCCCCCCCCCCC(=O)O[C@H](COC(=O)CCCCCCCCC/C=C\CCCCCCCC)COP(=O)(O)OC[C@H](N)C(=O)O [PS(42:03)] |  |  | 298.03 Å² | 
24 | CCCCC/C=C\C/C=C\C/C=C\CCCCCCC(=O)OC[C@H](COP(=O)(O)OC[C@H](N)C(=O)O)OC(=O)CCCCCCCCC/C=C\CCCCCCCCCC [PS(42:04)] | 304.19 Å² | 298.86 Å² | 296.39 Å² | 
25 | CCCCC/C=C\C/C=C\C/C=C\CCCCCCC(=O)OC[C@H](COP(=O)(O)OC[C@H](N)C(=O)O)OC(=O)CCCCCCCCCCC/C=C\C/C=C\CCCCC [PS(42:05)] | 300.15 Å² | 297.67 Å² | 295.24 Å² | 
26 | CC/C=C\C/C=C\C/C=C\C/C=C\C/C=C\C/C=C\CCC(=O)OC[C@H](COP(=O)(O)OC[C@H](N)C(=O)O)OC(=O)CCCCCCCCCCC/C=C\C/C=C\CCCCC [PS(44:08)] | 301.25 Å² |  |  | 
27 | CCCC/C=C\C/C=C\CCCCCCCC(=O)O[C@H](COCCCCCCCCCCCCCCCCCC)COP(=O)(O)OC[C@H](N)C(=O)O [PS(o35:02)] | 282.4 Å² |  |  | 
28 | CCCCCCCCCCCCC=CC[C@@H](O)[C@H](COP(=O)([O-])OCC[N+](C)(C)C)NC(=O)CC=CCCCCCCCCCCCCCC [SM(36:02)] |  | 280.32 Å² | 284.15 Å² | collision cross section (N2) ([2]; [M+HCOO]-): 289.73 Å²
29 | CCCCCCCCCCCCCCCCCCCCCC(=O)N[C@@H](COP(=O)([O-])OCC[N+](C)(C)C)[C@H](O)CCCCCCCCCCCCCCC [SM(40:00)] |  |  | 299.61 Å² | collision cross section (N2) ([2]; [M+Cl]-): 301.5 Å²; collision cross section (N2) ([2]; [M+HCOO]-): 303.38 Å²
30 | CCCCCCCCCCCCC=CC[C@@H](O)[C@H](COP(=O)([O-])OCC[N+](C)(C)C)NC(=O)CCCCCCCCCCCCCCCCCCCCC [SM(40:01)] |  | 296 Å² | 297.88 Å² | collision cross section (N2) ([2]; [M+Cl]-): 300.79 Å²; collision cross section (N2) ([2]; [M+HCOO]-): 301.44 Å²
31 | CCCCCCCCCCCCCCCCCCCCCCC(=O)N[C@@H](COP(=O)([O-])OCC[N+](C)(C)C)[C@H](O)CCCCCCCCCCCCCCC [SM(41:00)] | 301.12 Å² |  | 302.29 Å² | 
32 | CCCCCCCCCCCCC=CC[C@@H](O)[C@H](COP(=O)([O-])OCC[N+](C)(C)C)NC(=O)CC=CCCCCCCCCCCCCCCCCCCC [SM(41:02)] |  | 296.38 Å² | 298.91 Å² | collision cross section (N2) ([2]; [M+HCOO]-): 303.33 Å²
33 | CCCCCCCCCCCCC=CC[C@@H](O)[C@H](COP(=O)([O-])OCC[N+](C)(C)C)NC(=O)CC=CCC=CCCCCCCCCCCCCCCCCC [SM(42:03)] |  | 297.59 Å² | 299.58 Å² | collision cross section (N2) ([2]; [M+HCOO]-): 304.85 Å²
34 | CCCCCCCCCCCCC=CC[C@@H](O)[C@H](COP(=O)([O-])OCC[N+](C)(C)C)NC(=O)CCCCCCCCCCCCCCCCCCCCCCCC [SM(43:01)] |  | 304.16 Å² | 306.91 Å² | 
35 | CCCCCCCCCCCCC=CC[C@@H](O)[C@H](COP(=O)([O-])OCC[N+](C)(C)C)NC(=O)CC=CCCCCCCCCCCCCCCCCCCCCC [SM(43:02)] |  | 303.6 Å² | 304.47 Å² | 
